Assay results published in patent US20170333390A1, “PHYTOCHEMICAL COMPOSITIONS INCLUDING SESAMIN FOR ANTI-INFLAMMATORY, ANTI-CYTOKINE STORM, AND OTHER USES” (CHIANG MAI UNIVERSITY, priority 2009, published 2017).

Columns and labels:
[1] = system: IL-2 gene expression in LPS induced peripheral blood mononuclear cells (PBMCs); assay: IL-2 gene expression relative to GAPDH in LPS induced PBMCs (RT-PCR); format: cell-based; settings: 1.0 ug/ml sesamin (culture 4), LPS 20 ng/ml, 24 hours
Description: Experiments were conducted to evaluate the effect of particular phytochemical compositions provided by the present disclosure on IL-2 gene expression in specified cells found within a body of a living organism. Cells used for the experiment described in this example are LPS induced peripheral blood mononuclear cells (PBMCs). It is understood by a person having ordinary skill in the art that the PBMCs may be substituted for other immune cells found within the body. It is also understood by a person having ordinary skill in the art that other inducing substances or chemicals besides LPS, for example viral antigens, may also be used for inducing the PBMCs.
Preparation of PBMCs is done by standard isolation techniques or methods known to a person of ordinary skill in the art as with the experiments of example two. In addition, LPS can be obtained from a commercial source, for example Sigma-Aldrich Co. The PBMCs are cultured in 10% fetal calf serum in RPMI1640 medium. Five cultures of PBMCs, i.e. culture 1 to culture 5, were prepared. […]
The amount or level of IL-2 gene expression in the PBMCs was measured or determined using methods or techniques known to a person having ordinary skill in the relevant art. In example three, Real-Time PCR (RT-PCR) was used for quantifying the amount of IL-2 gene expression in the PBMCs.

[2] = system: influenza A (H1N1) virus-infected egg cells; assay: Quantity of IL-1 released by influenza A (H1N1) virus-infected egg cells; format: cell-based; settings: for quantity of IL-1 released: 24 hours, FIG. 5; for percentage of quantity of human IL-1 released relative to quantity of isolated egg cells (diluted 1:50): uninfected culture 1 = 100%, FIG. 6
Description: Experiments were conducted to evaluate the effects of particular phytochemical compositions provided by the present disclosure on quantity of IL-1 released by virus-infected cells. Virus-infected cells used for the experiments described in this example are influenza A (H1N1) virus-infected cells. More specifically, the virus-infected cells used for the experiments described in this example are influenza A (H1N1) virus-infected egg cells. The influenza A (H1N1) virus can be isolated from patients infected with the influenza A (H1N1) using standard techniques known to a person of ordinary skill in the art. In addition, isolation of cells (e.g., egg cells), and the infection of cells (e.g., isolated egg cells) can be performed using standard techniques or method known to a person of ordinary skill in the art. It is understood by a person having ordinary skill in the art that the influenza A (H1N1) virus-infected egg cells may be substituted for other viral-infected cells, or other cells found within the body, for instance, cells that that are involved in inflammatory responses within the body.
Six cultures of cells, i.e., culture 1 to culture 6, were prepared. The contents of each of cultures 1 to culture 6 are as follows: • (i) Culture 1: Control culture 1. Includes a predetermined volume of a sample of isolated egg cells that has been diluted in a ratio of 1:50; • (ii) Culture 2: Control culture 2. Includes the predetermined volume of the sample of isolated egg cells similar to that of culture 1 that have been infected with the influenza A (H1N1) virus diluted at a ratio of 1:7812500; • (iii) Culture 3: Control culture 3. Includes the predetermined volume of the sample of isolated egg cells similar to that of culture 1 and a volume of DMSO that has been infected with the influenza A (H1N1) virus diluted at a ratio of 1:7812500; • (iv) Culture 4: Includes the predetermined volume of the sample of isolated egg cells that have been infected with the influenza A (H1N1) virus similar to that of culture 2, and a volume of phytochemical composition providing sesamin at a concentration of 0.5 ug/ml; • (v) Culture 5: Includes the predetermined volume of the sample of isolated egg cells that have been infected with the influenza A (H1N1) virus similar to that of culture 2, and a volume of phytochemical composition providing sesamin at a concentration of 1.0 ug/ml; and • (vi) Culture 6: Includes the predetermined volume of the sample of isolated egg cells that have been infected with the influenza A (H1N1) virus similar to that of culture 2, and a volume of phytochemical composition providing sesamin at a concentration of 10.0 ug/ml.
In the experiments of example six, each of cultures 1 to 6 is made up to a final volume of approximately 200 μl in a well of a standard 96 well plate. It will be understood by a person of ordinary skill in the art that an alternative final volume (e.g., 100 μl) may also be used. The number or concentration of isolated egg cells used for each culture is approximately equal. For instance, the number of isolated egg cells used for each culture is approximately 2×10^5 (i.e., 200,000). It will be understood by a person of ordinary skill in the art that the number or concentration of isolated egg cells used for each of cultures 1 to 6 can be adjusted as required by varying the degree of dilution of the cultures (e.g., by increasing total volume of the culture by adding medium).
Each of cultures 1 to 6 was incubated at the same physical conditions for an equal length of time. More specifically, each culture was incubated at a temperature of 37° C. with 5% of carbon dioxide for 24 hours. The amount of IL-1 released from the isolated egg cells of each of cultures 1 to 6 was measured or determined using methods or techniques known to a person having ordinary skill in the relevant art.

c1cc2c(cc1[C@H]1OC[C@H]3[C@@H]1CO[C@@H]3c1ccc3c(c1)OCO3)OCO2 [sesamin]
increase in IL-2 gene expression relative GAPDH [1]: approximately 220% | quantity of IL-1 released ([2]; 0.5 ug/ml sesamin (culture 4)): approximately 4 pg/ml | percentage of quantity of human IL-1 released relative to quantity of isolated egg cells (diluted 1:50) ([2]; 0.5 ug/ml sesamin): approximately 22% | quantity of IL-1 released ([2]; 1.0 ug/ml sesamin (culture 5)): approximately 3.5 pg/ml | percentage of quantity of human IL-1 released relative to quantity of isolated egg cells (diluted 1:50) ([2]; 1.0 ug/ml sesamin): approximately 18% | quantity of IL-1 released ([2]; 10.0 ug/ml sesamin (culture 6)): approximately 3 pg/ml | percentage of quantity of human IL-1 released relative to quantity of isolated egg cells (diluted 1:50) ([2]; 10.0 ug/ml sesamin): approximately 16%
